What was measured:
[1] = system: HUVEC; experiment: Fibrinogen-mediated adhesion of 51Cr-labelled THP-1 cells to HUVEC; assay type: cell-based, human
Experimental: For these assays, HUVEC were plated in the medium described in Example 2A at a density of approximately 1-5×10^4 cells/well into flat-bottom microtiter wells of a 96 well tissue-culture treated plate. The cells were then washed in serum-free RPMI 1640 and further maintained with ^51-Chromium-labelled (^51Cr) THP-1 cell suspensions previously exposed to different concentrations of unlabelled fibrinogen or left untreated. To label THP-1 cells, serum-free suspensions of the cells at a concentration of 1×10^7 cells/ml were labelled with 0.5 mCi ^51Cr (Na2CrO4 having a specific activity of 487.4 mCi/mg, NEN Du Pont de Nemours) for 2 hours at 37° C. with incorporation of an average of 12 to 20 cpm/THP-1 cell. The labelled cells were then washed twice at room temperature with serum-free RPMI 1640 and resuspended in the same medium at a concentration of 5 ×10^5 cells/ml. The labelled cells were used in the assays within 2 hours from the labelling procedure. For the assays, the cells were pre-stimulated with 1 μM N-FMLP in the presence of 1 mM CaCl2 and […] PPack. The resultant N-FMLP-stimulated THP-1 cell suspensions were then separately admixed with the following: 1) Medium without any admixed fibrinogen as a control; 2) Fibrinogen at 1.2 mg/ml and at 2.5 mg/ml concentrations; and 3) Normal human plasma (NHP) diluted 1:2 and 1:50. Purified fibrinogen was prepared as described in Example 1. Fibrinogen was present in undiluted normal human plasma at the concentration of approximately 1-3 mg/ml. The resultant admixtures were maintained for 20 minutes at 22° C. to allow for the binding of fibrinogen, either purified or present in NHP, to the Mac-1 receptor on the surface of the THP-1 cells.
The resultant fibrinogen-bound THP-1 cells were then admixed to the washed immobilized HUVEC described above to allow for the binding of a non-Mac-1 receptor binding site on fibrinogen to the RGD-independent fibrinogen receptor on the surface of HUVEC, thereby resulting in the binding of THP-1 cells to HUVEC via a fibrinogen bridge. The admixtures were maintained at 37° C. to allow for adhesion. At selected time intervals between 1 to 60 minutes, the HUVEC monolayers were gently washed five times with serum-free RPMI 1640 to remove nonadherent or loosely adherent THP-1 cells to which fibrinogen was initially immobilized. The adherent cells were then solubilized in 10% SDS and the cell lysate was quantitated in a beta scintillation counter. Spontaneous ^51Cr release from THP-1 cells was always less than 2% during the adhesion assay. The number of specifically attached THP-1 cells was determined by dividing the cpm harvested by the cpm/cell.
To determine the effects that temperature has on the ability of fibrinogen to mediate the binding of ^51Cr-labelled THP-1 cells to monolayers of HUVEC, cell adhesion assays as described in Example 3B1) were performed at 22° C. and at 37° C. over the course of one hour. The assays were performed in an identical manner as described above with the exception that 500 μg/ml of fibrinogen was used instead of […]. The maximum binding of THP-1 cells to HUVEC at 22° C. was 7500 cells after 40 minutes. At 60 minutes, the binding decreased to 5000 cells. The data is significant in comparison to the approximately 2000 THP-1 cells attached in the absence of fibrinogen. However, at 37° C., approximately 20,000 THP-1 cells attached to HUVEC after 40 minutes against a background binding of approximately 5000 cells in the absence of fibrinogen. The binding of ^51Cr-labelled THP-1 cells to HUVEC, thus, is maximized at the physiologic temperature of 37° C. with physiologic concentrations of fibrinogen.

[2] = system: bovine aortic endothelial cells (BAE); experiment: Fibrinogen-mediated adhesion of 51Cr-labelled THP-1 cells to bovine aortic endothelial cells; assay type: cell-based; settings: 500 μg/ml fibrinogen
Experimental: Cell adhesion binding assays described above were performed on bovine aortic endothelial cells (BAE) to determine if fibrinogen could mediate the binding of ^51Cr-labelled THP-1 cells to endothelial cells from a different source. Cell cultures were prepared from bovine aorta following procedures known to one skilled in the art. THP-1 cells were either left untreated or treated with 500 μg/ml fibrinogen over a 60 minute time course. At selected time points, the cells were harvested as described in Example 3B1) and the number of attached THP-1 cells were determined as previously described. […] However, in the presence of fibrinogen, approximately 20,000 cells bound to BAE cells after a 40 minute maintenance period. This maximum binding dropped off at 60 minutes to approximately 15,000 attached cells. Binding of THP-1 cells to HUVEC was done in parallel as a control for the experiment; the non-saturable binding of THP-1 cells in the presence of fibrinogen was maximal at 60 minutes with approximately 25,000 cells attached. Thus, fibrinogen mediates the binding of THP-1 cells not only to human endothelial cells but also to bovine-derived endothelial cells.

[3] = system: HUVEC; experiment: Adhesion of terminally-differentiated 51Cr-labeled HL-60 cells to resting HUVEC with plasma adhesive proteins; assay type: cell-based, human; settings: 150 μ/ml protein, fMLP 10 μM, 30 min at 22° C.
Experimental: The effect of fibrinogen, vitronectin, and fibronectin on the interaction of terminally-differentiated HL-60 and monocytic THP-1 cells with HUVEC was determined as described in Languino, supra. Briefly, serum-free suspensions of HL-60 or THP-1 cells were labeled with ^51Cr as described in Example 81A to a final incorporation of 0.2-4 cpm/cell. After washes in PBS, pH 7.2, aliquots of the HL-60 cells were resuspended in serum-free RPMI 1640 at 1.5×10^6/ml and stimulated with 10 μM of the chemoattractant formyl-methionyl-leucyl-phenylalanine (fMLP, Sigma, St. Louis, Mo.) and equilibrated with 150 μ/ml fibrinogen, vitronectin, or fibronectin in the presence of 1 mM CaCl2 for 20 min at 22° C. Equilibrated HL-60 were added to resting HUVEC monolayers that had been previously incubated with fresh complete culture medium 12 hours prior to the experiment and incubated for an additional 30 min at 22° C., washed,solubilized in 10-20% SDS, and associated radioactivity determined in a scintillation β-counter. The number of attached cells was quantitated by diving the cpm harvested by the cpm/cell. Under these experimental conditions, there was no aggregation of the various leukocyte subpopulations in the presence of the different plasma adhesive proteins, nor disruption of the HUVEC monolayers at any time interval tested, as judged by routine microscopic examination of the adhesion field. Data are the mean ± S.D. of triplicates from a representative experiment.
Experimental conditions were the same as described in Example 9C1 except that the ^51Cr-labeled HL-60 cells were equilibrated with 40 μg/ml vitronectin or control protein transferrin and added to resting HUVEC for increasing time intervals between 10 and 60 minutes at 22° C. before measurement of leukocyte adhesion.
Experimental conditions were the same as described in Example 9C1 except that the ^51Cr-labeled HL-60 cells were equilibrated with several concentrations of vitronectin ranging from 1.84 to 150 μg/ml and prior to incubation to resting HUVEC.

With “fibrinogen: fibrinogen isolated from fresh plasma by cold ethanol fractionation, fibronectin-free” the “THP-1 cells bound to HUVEC, maximum” value ([1]; 500 μg/ml fibrinogen, 22° C., 40 minutes) was 7500 cells, the “THP-1 cells bound to HUVEC” value ([1]; 500 μg/ml fibrinogen, 22° C., 60 minutes) was 5000 cells and the “THP-1 cells attached to HUVEC” value ([1]; 500 μg/ml fibrinogen, 37° C., 40 minutes) was “approximately 20,000 cells”. The “THP-1 cells attached to HUVEC (parallel control), maximal” value ([1]; 500 μg/ml fibrinogen, 60 minutes, non-saturable) was “approximately 25,000 cells”, the “THP-1 cells attached to HUVEC, maximum” value ([1]; 1.2 mg/ml fibrinogen, 37° C., 60 minute time course) was 10,000 cells and the “THP-1 cells attached to HUVEC” value ([1]; 2.5 mg/ml fibrinogen, 60 minutes, not saturated) was “approximately 18,000 cells”. The “THP-1 cells bound to BAE cells” value ([2]; 40 minutes) was “approximately 20,000 cells”, the “THP-1 cells bound to BAE cells” value ([2]; 60 minutes) was “approximately 15,000 cells” and the “adhesion of differentiated HL-60 cells to HUVEC relative to cells not equilibrated with an adhesive protein” value [3] was “two to three-fold higher”.

— patent US6737058B2, “Methods for inhibiting endothelial cell and fibrinogen mediated inflammation using fibrinogen specific antibodies” (The Scripps Research Institute, priority 1992, dated 2004)
